Measurements as given in US20230074252A1, “DOSAGES AND METHODS FOR TREATING PULMONARY ARTERIAL HYPERTENSION WITH RODATRISTAT” (Altavant Sciences GmbH, priority 2020, published 2023).
Like-named read-outs stand apart in the source and are kept apart here.

Tests used:
[1] = Predicted plasma Cmax for 600 mg rodatristat ethyl BID (ELEVATE1/ELEVATE2); parameters: species or system human; settings: for Unbound Cmax: 600 mg BID, conservative 1% free fraction; for Predicted mean maximum plasma concentration (Cmax) / Cmax: 600 mg rodatristat ethyl BID, plasma; for Cmax: read-out: Predicted mean maximum plasma concentration (Cmax)
Experimental: (§1) The potential for rodatristat ethyl or rodatristat to be perpetrators of drug-drug interactions was assessed across in vitro CYP and transporter studies (Tables 1-4). […] This analysis was performed to assess the potential for clinically meaningful DDIs as recommended in FDA Draft Guidance: “In Vitro Metabolism- and Transporter-Mediated Drug-Drug Interaction Studies Guidance for Industry”; October 2017 (FDA, 2017).
(§2) R1 and R3 values using free (non-protein bound) drug levels were calculated based on plasma protein binding (fraction bound, fb) of rodatristat ethyl (0.995) and rodatristat (0.991). The FDA Guidance is set forth In Vitro Metabolism- and Transporter-Mediated Drug-Drug Interaction Studies Guidance for Industry (2017). […] Parameters for the prediction are set forth below in Tables 5 and 6.

OAT3 = molecular target: T1, OAT3 (Homo sapiens, UniProt Q8TCC7); test: Transporter inhibition, transporter-expressing in vitro system; format: in vitro ADME; settings: for Potential for interaction? (transporter inhibitor), OAT3: predicted @ 600 mg BID
T1 sequence (Q8TCC7 1-542): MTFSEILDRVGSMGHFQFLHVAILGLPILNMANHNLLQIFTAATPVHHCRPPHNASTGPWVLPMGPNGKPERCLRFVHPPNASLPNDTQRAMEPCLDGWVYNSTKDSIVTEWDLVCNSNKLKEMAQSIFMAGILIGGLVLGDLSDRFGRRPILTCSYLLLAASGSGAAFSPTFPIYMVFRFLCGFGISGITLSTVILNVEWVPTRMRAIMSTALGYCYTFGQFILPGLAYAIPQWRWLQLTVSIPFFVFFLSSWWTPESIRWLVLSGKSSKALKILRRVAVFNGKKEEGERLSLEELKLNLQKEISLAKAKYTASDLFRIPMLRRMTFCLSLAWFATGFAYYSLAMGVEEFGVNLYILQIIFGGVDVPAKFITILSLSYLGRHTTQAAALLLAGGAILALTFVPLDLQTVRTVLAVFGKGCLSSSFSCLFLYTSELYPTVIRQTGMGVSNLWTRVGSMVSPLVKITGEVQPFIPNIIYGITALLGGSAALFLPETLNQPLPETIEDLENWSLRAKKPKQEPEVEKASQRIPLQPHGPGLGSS
Experimental: (§3) The competitive inhibition of specific transporters was investigated for RVT-1201 and KAR5417 in transporter-expressing in vitro systems (XT158039). Inhibition of P-gp was evaluated using a Caco-2 cell line with digoxin as probe substrate. Inhibition of OATP1B1 and OATP1B3 was evaluated using a HEK293 cell line expressing these transporters with estradiol-17β-glucuronide as probe substrate. In addition, inhibition of other transporters was also investigated (BCRP, OAT1, OAT3, OCT2, MATE1, MATE2-K). The IC50 estimates for P-gp (RVT-1201) and OATP1B1/3 (RVT-1201 and KAR5417) supported further evaluation of inhibition DDI potential using the PBPK model. For each IC50 estimate, substrate concentration and Km were used to estimate RVT-1201 and KAR5417 Ki with Equation 1 (Cheng and Prusoff, 1973).

CYP1A2 = molecular target: T2, CYP1A2 (Homo sapiens, UniProt P05177); test: In vitro CYP substrate assessment (victim potential); format: in vitro ADME
T2 sequence (P05177 1-516): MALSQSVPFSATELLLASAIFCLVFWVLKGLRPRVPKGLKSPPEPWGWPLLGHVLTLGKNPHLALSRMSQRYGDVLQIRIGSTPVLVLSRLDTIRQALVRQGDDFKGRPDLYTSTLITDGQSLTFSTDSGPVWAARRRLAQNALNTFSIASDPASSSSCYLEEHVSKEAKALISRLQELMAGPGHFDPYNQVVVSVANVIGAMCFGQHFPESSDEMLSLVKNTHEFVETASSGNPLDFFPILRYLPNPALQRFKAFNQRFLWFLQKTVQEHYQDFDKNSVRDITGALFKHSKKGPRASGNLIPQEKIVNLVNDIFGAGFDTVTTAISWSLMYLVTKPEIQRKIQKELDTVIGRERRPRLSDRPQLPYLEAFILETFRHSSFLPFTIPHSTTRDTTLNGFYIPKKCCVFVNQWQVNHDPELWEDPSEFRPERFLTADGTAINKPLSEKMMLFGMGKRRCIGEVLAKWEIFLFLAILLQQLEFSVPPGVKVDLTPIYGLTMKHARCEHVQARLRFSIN

CYP2C9 = CYP2C9 (Homo sapiens, UniProt P11712); test: as above; format: in vitro ADME
Sequence of CYP2C9 (P11712 whole entry): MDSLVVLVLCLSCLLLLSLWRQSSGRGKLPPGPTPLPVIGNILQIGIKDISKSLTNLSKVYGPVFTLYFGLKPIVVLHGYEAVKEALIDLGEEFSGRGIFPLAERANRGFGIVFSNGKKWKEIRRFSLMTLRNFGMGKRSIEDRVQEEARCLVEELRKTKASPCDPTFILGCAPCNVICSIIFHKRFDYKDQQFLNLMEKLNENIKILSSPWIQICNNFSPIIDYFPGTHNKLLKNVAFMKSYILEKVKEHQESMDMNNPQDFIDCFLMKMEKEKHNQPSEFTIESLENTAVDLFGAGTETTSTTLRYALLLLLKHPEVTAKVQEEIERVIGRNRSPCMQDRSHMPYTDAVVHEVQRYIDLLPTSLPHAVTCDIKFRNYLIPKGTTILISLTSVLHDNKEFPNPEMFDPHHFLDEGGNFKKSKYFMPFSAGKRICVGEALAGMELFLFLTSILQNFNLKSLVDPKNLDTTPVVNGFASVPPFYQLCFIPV

P-gp = molecular target: T3, P-gp (Homo sapiens, UniProt P08183); test: Transporter inhibition, Caco-2 cells, digoxin probe; format: in vitro ADME; settings: for Potential for interaction? (transporter inhibitor), P-gp: predicted @ 600 mg BID
T3 construct: endogenous in cells; host or cells: Caco-2
T3 sequence (P08183 whole entry): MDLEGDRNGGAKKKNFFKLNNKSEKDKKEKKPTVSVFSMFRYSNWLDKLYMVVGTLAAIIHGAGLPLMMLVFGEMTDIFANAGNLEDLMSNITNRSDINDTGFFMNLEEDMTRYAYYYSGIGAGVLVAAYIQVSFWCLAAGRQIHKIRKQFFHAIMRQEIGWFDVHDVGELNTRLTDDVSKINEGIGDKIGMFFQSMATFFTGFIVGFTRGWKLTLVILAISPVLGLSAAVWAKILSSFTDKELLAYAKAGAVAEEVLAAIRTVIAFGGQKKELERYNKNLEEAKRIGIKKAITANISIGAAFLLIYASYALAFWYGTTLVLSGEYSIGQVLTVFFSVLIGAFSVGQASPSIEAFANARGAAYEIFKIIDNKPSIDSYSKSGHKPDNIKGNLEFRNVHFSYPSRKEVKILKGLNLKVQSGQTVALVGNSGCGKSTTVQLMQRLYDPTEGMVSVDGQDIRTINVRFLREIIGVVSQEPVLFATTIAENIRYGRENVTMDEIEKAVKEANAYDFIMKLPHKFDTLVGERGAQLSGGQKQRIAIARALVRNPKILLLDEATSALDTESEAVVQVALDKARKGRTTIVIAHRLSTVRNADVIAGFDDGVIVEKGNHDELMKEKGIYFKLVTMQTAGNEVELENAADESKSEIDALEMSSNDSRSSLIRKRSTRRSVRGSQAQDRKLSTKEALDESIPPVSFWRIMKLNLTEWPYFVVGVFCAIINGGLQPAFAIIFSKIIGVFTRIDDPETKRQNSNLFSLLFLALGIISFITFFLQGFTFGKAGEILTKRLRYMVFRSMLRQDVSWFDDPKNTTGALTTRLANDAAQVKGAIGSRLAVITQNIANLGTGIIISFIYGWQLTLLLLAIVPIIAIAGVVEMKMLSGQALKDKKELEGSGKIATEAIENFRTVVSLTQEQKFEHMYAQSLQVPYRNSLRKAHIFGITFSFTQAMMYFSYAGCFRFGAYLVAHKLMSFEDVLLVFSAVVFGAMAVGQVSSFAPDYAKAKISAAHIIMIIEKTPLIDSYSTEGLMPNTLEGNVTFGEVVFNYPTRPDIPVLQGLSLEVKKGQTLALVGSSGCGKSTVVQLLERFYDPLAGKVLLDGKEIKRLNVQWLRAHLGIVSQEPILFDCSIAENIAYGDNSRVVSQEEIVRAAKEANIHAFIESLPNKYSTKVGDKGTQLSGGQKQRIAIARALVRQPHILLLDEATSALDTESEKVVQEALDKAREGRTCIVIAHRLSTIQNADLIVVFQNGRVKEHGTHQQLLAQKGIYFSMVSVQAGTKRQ
Experimental: as §3

CYP isoforms = test: Time-dependent CYP inhibition (overall statement); format: in vitro ADME, human
CYP3A4 = test: FDA guidance DDI risk assessment, perpetrator potential; parameters: species or system human; settings: predicted @ 600 mg BID
Experimental: as §1, §2

Plasma protein binding = format: in vitro ADME, human; settings: for fraction unbound: human, plasma, read-out: Plasma protein binding (fraction bound) (converted)
From the text: This analysis is typically based on non-protein bound drug levels in plasma. Values for plasma protein binding (fraction bound) of rodatristat ethyl and rodatristat were 0.995 and 0.991, respectively.
Calculation of Cmax, u, portal uses plasma Cmax, fraction of an oral dose absorbed (Fa) and measured unbound fraction in blood. For rodatristat, experimentally derived values were used for Fa determined in a rat 14C study (20%) and in vitro binding to human plasma (99.1%) and blood:plasma distribution (RB, 0.72). Walsky et al proposed a threshold where the ratio of Cmax, u, portal/Ki of <0.1 is associated with low risk. […] In the rat, the RE:R is ˜3-fold higher in portal blood compared to the periphery.

Unbound Cmax [1] | Predicted mean maximum plasma concentration (Cmax) [1] | Cmax [1] | Potential for interaction? (transporter inhibitor), OAT3 (OAT3) | In vitro substrate? CYP1A2 (CYP1A2) | In vitro substrate? CYP2C9 (CYP2C9) | IC50 (P-gp; Caco 2 cells, read-out: In vitro IC50, P-gp) | Potential for interaction? (transporter inhibitor), P-gp (P-gp) | Time-dependent inhibition of CYP isoforms (CYP isoforms) | Potential for interaction (perpetrator), CYP3A4 (CYP3A4) | fraction unbound (Plasma protein binding) | Unbound Cmax ([1]; listed as rodatristat) | Inhibition of P-gp (in words) (P-gp) | Time-dependent inhibition of CYP isoforms (CYP isoforms; listed as rodatristat) | In vitro binding to human plasma (Plasma protein binding) | Structure (SMILES) | Inhibition of OAT3 (in words) (OAT3)
2.5 nM | 149 ng/mL | 252 nM | No | No | No | 3.32 µM | Yes | not time-dependent CYP inhibitors | Yes | 0.005 |  |  |  |  | CCOC(=O)[C@@H]1CC2(CCN(c3cc(O[C@H](c4ccc(Cl)cc4-c4ccccc4)C(F)(F)F)nc(N)n3)CC2)CN1 [Rodatristat ethyl, (S)-ethyl 8-(2-amino-6-((R)-1-(5-chloro-[1,1′-biphenyl]-2-yl)-2,2,2-trifluoroethoxy)pyrimidin-4-yl)-2,8-diazaspiro[4.5]decane-3-carboxylate] | Neither rodatristat ethyl nor rodatristat inhibited
20 nM | 1130 ng/mL | 2010 nM | No | No | No |  | No |  | Yes | 0.009 | 20.1 nM | not an inhibitor | not time-dependent CYP inhibitors | 99.1% | Nc1nc(O[C@H](c2ccc(Cl)cc2-c2ccccc2)C(F)(F)F)cc(N2CCC3(CC2)CN[C@H](C(=O)O)C3)n1 [Rodatristat, (S)-8-(2-amino-6-((R)-1-(5-chloro-[1,1′-biphenyl]-2-yl)-2,2,2-trifluoroeth-oxy)pyrimidin-4-yl)-2,8-diazaspiro[4.5]decane-3-carboxylic acid] | Neither rodatristat ethyl nor rodatristat inhibited
